Like-named read-outs stand apart in the source and are kept apart here.
Experiments:
[1] = biological target: T1, Full length ERK3 (NanoLuc fusion) (Homo sapiens, UniProt Q16659); experiment: Cell-based NanoBRET assay (tracer displacement) in HEK293T cells; settings: for IC50: Figure 2F, HEK293T cells, 0.25 µM Tracer K5, 2 h, averaged over two replicates; for remaining activity at 5 µM / remaining activity at 10 µM: HEK-293T, 2 h, Table S3, ratio to DMSO control; for remaining activity at 5 µM: single dose 5 µM, read-out: Norm.BRET 5 µM; for remaining activity at 10 µM: single dose 10 µM, read-out: Norm.BRET 10 µM
T1 construct: Full length ERK3 was cloned into pFC32K (Promega, Madison, WI, USA); expressed in transfected cells; host or cells: HEK293T
T1 sequence (Q16659 whole entry, the tested form may be a part): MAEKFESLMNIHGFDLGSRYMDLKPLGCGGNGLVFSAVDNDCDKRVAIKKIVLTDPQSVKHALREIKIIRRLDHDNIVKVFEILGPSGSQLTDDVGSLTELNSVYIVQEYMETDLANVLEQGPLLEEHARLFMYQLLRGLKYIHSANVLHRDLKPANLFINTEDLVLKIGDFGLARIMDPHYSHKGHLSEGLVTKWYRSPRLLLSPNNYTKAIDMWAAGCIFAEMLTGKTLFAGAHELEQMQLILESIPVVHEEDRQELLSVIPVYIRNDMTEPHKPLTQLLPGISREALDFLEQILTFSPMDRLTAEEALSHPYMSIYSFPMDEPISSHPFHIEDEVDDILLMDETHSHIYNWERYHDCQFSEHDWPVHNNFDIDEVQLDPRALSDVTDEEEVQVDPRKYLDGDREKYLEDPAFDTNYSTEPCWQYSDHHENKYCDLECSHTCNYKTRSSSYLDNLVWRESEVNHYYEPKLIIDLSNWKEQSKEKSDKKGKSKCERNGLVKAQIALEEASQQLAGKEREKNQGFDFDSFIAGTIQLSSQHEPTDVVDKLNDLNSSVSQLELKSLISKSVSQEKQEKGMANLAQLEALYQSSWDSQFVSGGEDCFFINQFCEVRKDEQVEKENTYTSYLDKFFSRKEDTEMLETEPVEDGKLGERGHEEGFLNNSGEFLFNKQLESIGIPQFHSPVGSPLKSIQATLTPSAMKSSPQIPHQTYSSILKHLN
Protocol: Full length ERK3 was cloned into pFC32K (Promega, Madison, WI, USA) for the expression of an […] NanoLuc fusion, and the plasmid was transfected into HEK293T cells cultured in DMEM (Gibco) supplemented with 10% fetal bovine serum (Gibco) and penicillin/streptamycin (Gibco, Thermo Fisher Scientific, Waltham, MA, USA). NanoBRET assays were performed using protocol published previously. Briefly, after transfection and 20 h incubation, cells were harvested and subsequently resuspended in OptiMEM (Gibco). […] BRET luminescence (450 nm for donor emission and 610 nm for BRET signal) was measured using PHERAstar FSX plate reader (BMG Labtech, Ortenberg, Germany). Milli-BRET units (mBU) were calculated as a ratio between the BRET signal and the overall measured luminescence. A dose–response fitting was applied, and the corresponding IC50 values were calculated in Prism software. For the single concentration screening, the normalized BRET values were calculated from the ratio between the BRET signals of the tested inhibitor and that of the DMSO control.

ERK3 kinase domain [2] = biological target: T2, ERK3 kinase domain (Homo sapiens, UniProt Q16659); experiment: Melting temperature assay (differential scanning fluorimetry, DSF); format: binding
T2 construct: The kinase domain of ERK3 (M9-I327) was subcloned into pNIC28–Bsa4; His6 (N, cleaved yes); made in house; host or cells: E. coli (co-expressed with lambda phosphatase)
T2 sequence (Q16659 9-327): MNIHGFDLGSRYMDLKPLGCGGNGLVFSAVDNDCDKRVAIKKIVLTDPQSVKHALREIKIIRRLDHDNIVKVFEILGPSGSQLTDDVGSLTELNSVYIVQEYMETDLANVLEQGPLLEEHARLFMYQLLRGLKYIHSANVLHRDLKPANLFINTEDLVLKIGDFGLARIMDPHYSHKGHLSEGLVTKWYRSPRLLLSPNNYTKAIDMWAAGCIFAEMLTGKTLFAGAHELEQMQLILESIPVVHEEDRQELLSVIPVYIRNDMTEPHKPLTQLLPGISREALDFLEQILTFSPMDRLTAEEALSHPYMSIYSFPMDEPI
Protocol: The ERK3 kinase domain at 2 µM in 10 mM HEPES pH 7.5 and 500 mM NaCl was mixed with 10 µM inhibitors and SyPRO Orange at 1:1000 dilution. After 10 min incubation at room temperature, the fluorescence signal, which increases upon the temperature-dependent unfolding of ERK3 protein, was measured using Mx3005p real-time PCR machine (Stratagene, San Diego, CA, USA). The ∆Tm shifts were calculated using protocol described previously.

ERK3 kinase domain [3] = biological target: T2, ERK3 kinase domain; experiment: Isothermal titration calorimetry (ITC); format: binding
Protocol: The integrated heat of titration was calculated and fitted into an independent binding model using NanoAnalyzer software. Thermodynamic parameters, the dissociation constant (Kd), and stoichiometry (n) were an average over duplicates.

[4] = Table S3, DSF assay values shown for comparison, read-out: ΔTm ERK3
[5] = Table S2, 10 µM inhibitors, read-out: ΔTm Initial Screen
[6] = Table S2, average of two repeats ± standard deviation, read-out: ΔTm Follow Up

CCN1CCN(Cc2ccc(-c3cc4c(N[C@H](C)c5ccccc5)ncnc4[nH]3)cc2)CC1 [AEE788]
IC50 [1]: 145 ± 45 nM
remaining activity at 5 µM ([1]; HEK293T): 40 ± 1.6%
remaining activity at 10 µM ([1]; HEK293T): 38.8 ± 3.1%
ΔTm at 10 µM (ERK3 kinase domain [2]; [4]): 0.4 ± 0.3 °C

COc1cc2ncnc(Nc3cccc(Cl)c3)c2cc1OC [AG-1478]
remaining activity at 5 µM ([1]; HEK293T): 73.5 ± 1.1%
remaining activity at 10 µM ([1]; HEK293T): 41.7%
ΔTm at 10 µM (ERK3 kinase domain [2]; [4]): 0.06 °C

O=C(Nc1c[nH]nc1-c1nc2ccc(CN3CCOCC3)cc2[nH]1)NC1CC1 [AT9283]
ITC dissociation constant (Kd), in words (ERK3 kinase domain [3]): low nanomolar affinities
Kd (ERK3 kinase domain [3]; Figure 2E, 15 °C, averaged over two replicates, read-out: ITC dissociation constant Kd): 80 ± 5 nM
IC50 [1]: 15 ± 7 nM
remaining activity at 5 µM ([1]; HEK293T): 16.1 ± 3.9%
remaining activity at 10 µM ([1]; HEK293T): 10.6 ± 1.5%
ΔTm (melting temperature shift) (ERK3 kinase domain [2]; DSF screen of 1454 kinase inhibitors): 3.1–3.8 °C
ΔTm at 10 µM (ERK3 kinase domain [2]; [5]): 3.08 °C
ΔTm at 10 µM (ERK3 kinase domain [2]; [6]): 3.1 ± 0.1 °C

Cc1ncc(-c2ccnc(Nc3ccc(S(C)(=O)=O)cc3)n2)n1C(C)C [AZD5438]
remaining activity at 5 µM ([1]; HEK293T): 93.3 ± 4%
remaining activity at 10 µM ([1]; HEK293T): 61.7 ± 2.2%
ΔTm at 10 µM (ERK3 kinase domain [2]; [4]): -0.17 °C

CC(C)CCN1c2nc(Nc3cc(F)c(O)c(F)c3)ncc2N(C)C(=O)C1C (stereo not drawn) [BI-D1870]
remaining activity at 5 µM ([1]; HEK293T): 80.6 ± 6.7%
remaining activity at 10 µM ([1]; HEK293T): 49.4 ± 1.1%
ΔTm at 10 µM (ERK3 kinase domain [2]; [4]): 0.02 °C

O=C(Nc1cccc(Nc2ncc(Br)c(NCCc3cnc[nH]3)n2)c1)N1CCCC1 [BX-912]
remaining activity at 5 µM ([1]; HEK293T): 74.1 ± 1.5%
remaining activity at 10 µM ([1]; HEK293T): 53.2 ± 1.7%
ΔTm at 10 µM (ERK3 kinase domain [2]; [4]): -0.12 °C

O=C(/C=C/c1ccc(O)c(O)c1)c1ccc(O)cc1O [Butein]
ΔTm at 10 µM (ERK3 kinase domain [2]; [5]): 1.15 °C

CN1CCN(c2ccc(Nc3nccc(-c4cnn5ncccc45)n3)cc2)CC1 [CAF045]
ΔTm at 10 µM (ERK3 kinase domain [2]; read-out: ΔTm Follow Up): 1.4 ± 0.5 °C
ΔTm at 10 µM (ERK3 kinase domain [2]; read-out: ΔTm Initial Screen): 1.61 °C

CN1CCN(c2ccc(Nc3nccc(-c4cnn5ncccc45)n3)cc2F)CC1 [CAF052]
IC50 [1]: 20 ± 13 nM
ΔTm at 10 µM (ERK3 kinase domain [2]; [5]): 2.81 °C
ΔTm at 10 µM (ERK3 kinase domain [2]; [6]): 2.5 ± 0.3 °C

O=C(Nc1ccc(Nc2nccc(Nc3cc(C4CCCC4)[nH]n3)n2)cc1)Nc1cccc(C(F)(F)F)c1 [CD532]
ΔTm at 10 µM (ERK3 kinase domain [2]; [5]): 1.7 °C
ΔTm at 10 µM (ERK3 kinase domain [2]; [6]): 1 ± 0.1 °C

O=C(NC(NC(=S)Nc1ccc(F)c([N+](=O)[O-])c1)C(Cl)(Cl)Cl)C(c1ccccc1)c1ccccc1 (stereo not drawn) [CGK733]
ΔTm at 10 µM (ERK3 kinase domain [2]; [5]): 1.17 °C

C=CC(=O)Nc1cccc(Nc2nc(Nc3ccc(Oc4ccnc(C(=O)NC)c4)cc3)ncc2F)c1 [CNX-774]
ΔTm at 10 µM (ERK3 kinase domain [2]; [5]): 1.04 °C

Cc1nc(N)sc1-c1ccnc(Nc2ccc(N3CCOCC3)cc2)n1 [CYC116]
remaining activity at 5 µM ([1]; HEK293T): 64.9 ± 3.8%
remaining activity at 10 µM ([1]; HEK293T): 52.9 ± 2.8%
ΔTm at 10 µM (ERK3 kinase domain [2]; [4]): 0.26 °C

C=CC(=O)Nc1cc2c(Nc3ccc(F)c(Cl)c3)ncnc2cc1OCCCN1CCOCC1 [Canertinib]
ΔTm at 10 µM (ERK3 kinase domain [2]; [5]): 2.05 °C
ΔTm at 10 µM (ERK3 kinase domain [2]; [6]): 3.1 ± 0.3 °C

Cc1cc(Nc2cc(N3CCN(C)CC3)nc(/C=C/c3ccccc3)n2)n[nH]1 [ENMD-2076]
remaining activity at 5 µM ([1]; HEK293T): 90.8 ± 3%
remaining activity at 10 µM ([1]; HEK293T): 58.5 ± 0.4%
ΔTm at 10 µM (ERK3 kinase domain [2]; [4]): -0.15 °C

CCn1cc(-c2ccnc3[nH]c(-c4cccc(CN(C)C)c4)cc23)c(-c2ccc(NC(=O)N(C)C)cc2)n1 [GSK1070916]
IC50, cell-based NanoBRET assay ([1]; HEK293T): did not produce a BRET signal
remaining activity at 5 µM ([1]; HEK293T): 56.8 ± 2.8%
remaining activity at 10 µM ([1]; HEK293T): 31.3 ± 0.1%
ΔTm at 10 µM (ERK3 kinase domain [2]; [5]): 1.45 °C
ΔTm at 10 µM (ERK3 kinase domain [2]; [6]): 0.1 ± 0.3 °C

CCCN1CCC(c2ccc(Nc3nc(Nc4cc(F)ccc4C(N)=O)c4cc[nH]c4n3)c(OC)c2)CC1 [GSK1326255A]
ΔTm at 10 µM (ERK3 kinase domain [2]; [5]): 1.12 °C
ΔTm at 10 µM (ERK3 kinase domain [2]; [6]): -0.3 ± 0.3 °C

O=C1Nc2ccc(I)cc2C1=Cc1cc(Br)c(O)c(Br)c1 [GW5074]
ΔTm at 10 µM (ERK3 kinase domain [2]; read-out: ΔTm Initial Screen): 1.36 °C

NS(=O)(=O)c1ccc(N/N=C2\C(=O)Nc3ccc4ncccc4c32)cc1 [GW305178X]
ΔTm at 10 µM (ERK3 kinase domain [2]; [5]): 1.04 °C
ΔTm at 10 µM (ERK3 kinase domain [2]; [6]): 1.1 ± 0.2 °C

CS(=O)(=O)CCNCc1ccc(-c2ccc3ncnc(Nc4ccc(OCc5ccccc5)c(Br)c4)c3c2)o1 [GW580496A]
ΔTm at 10 µM (ERK3 kinase domain [2]; [5]): 1.04 °C
ΔTm at 10 µM (ERK3 kinase domain [2]; [6]): 0.8 ± 0.4 °C

COc1cccc(-n2ncc3c(N/N=C/c4ccc(C(=O)NCCN(C)C)cc4)ncnc32)c1 [GW784307A]
ΔTm at 10 µM (ERK3 kinase domain [2]; read-out: ΔTm Initial Screen): 1.3 °C

COc1cccc(-c2c[nH]c3c(N/N=C/c4ccncc4)ncnc23)c1 [GW814408X]
ΔTm at 10 µM (ERK3 kinase domain [2]; [5]): 2.55 °C
ΔTm at 10 µM (ERK3 kinase domain [2]; [6]): 2.5 ± 0.2 °C

O=C(Nc1cc(C(F)(F)F)cc(C(F)(F)F)c1)c1cc(Cl)ccc1O [IMD0354]
ΔTm at 10 µM (ERK3 kinase domain [2]; read-out: ΔTm Initial Screen): 1.21 °C

Oc1ccc2ccccc2c1SSc1c(O)ccc2ccccc12 [IPA-3]
remaining activity at 5 µM ([1]; HEK293T): 67.8 ± 10.6%
remaining activity at 10 µM ([1]; HEK293T): 45.5 ± 4.2%
ΔTm at 10 µM (ERK3 kinase domain [2]; [4]): -3.92 ± 0.3 °C

Nc1nc(Nc2ccc(S(N)(=O)=O)cc2)nn1C(=O)c1c(F)cccc1F [JNJ-7706621]
remaining activity at 5 µM ([1]; HEK293T): 23.1 ± 0.1%
remaining activity at 10 µM ([1]; HEK293T): 17 ± 0.1%
ΔTm at 10 µM (ERK3 kinase domain [2]; [4]): 0.2 ± 0.1 °C

CN(c1ncccc1CNc1nc(Nc2ccc3c(c2)CC(=O)N3)ncc1C(F)(F)F)S(C)(=O)=O [PF-00562271]
remaining activity at 5 µM ([1]; HEK293T): 76.8 ± 9.4%
remaining activity at 10 µM ([1]; HEK293T): 49.5 ± 4.6%
ΔTm at 10 µM (ERK3 kinase domain [2]; [4]): -0.09 °C

NC(=O)c1cnc(N[C@@H]2CCCC[C@@H]2N)nc1Nc1cccc(-n2nccn2)c1 [PRT062607]
remaining activity at 5 µM ([1]; HEK293T): 88.2 ± 10.3%
remaining activity at 10 µM ([1]; HEK293T): 60.1 ± 16.9%
ΔTm at 10 µM (ERK3 kinase domain [2]; [4]): 0.51 °C

CC(C)(C)c1cc(NC(=O)Nc2ccc(-c3cn4c(n3)sc3cc(OCCN5CCOCC5)ccc34)cc2)no1 [Quizartinib]
ΔTm Initial Screen (ERK3 kinase domain [2]; Table S2, 10 µM inhibitors): 1.12 °C

Fc1ccc(-c2ncn(C3CCNCC3)c2-c2ccnc(Oc3ccc4c(c3)OCO4)n2)cc1 [SB-250715]
ΔTm at 10 µM (ERK3 kinase domain [2]; [5]): 1.1 °C

CC(C)(C)c1cnc(CSc2cnc(NC(=O)C3CCNCC3)s2)o1 [SNS-032]
remaining activity at 5 µM ([1]; HEK293T): 71.7 ± 7.8%
remaining activity at 10 µM ([1]; HEK293T): 49.8 ± 4.1%
ΔTm at 10 µM (ERK3 kinase domain [2]; [4]): 0.15 °C

CNC(=O)c1cc(Oc2ccc(NC(=O)Nc3ccc(Cl)c(C(F)(F)F)c3)cc2)ccn1 [Sorafenib]
ΔTm at 10 µM (ERK3 kinase domain [2]; read-out: ΔTm Follow Up): 0 °C
ΔTm at 10 µM (ERK3 kinase domain [2]; read-out: ΔTm Initial Screen): 1.2 °C

Cc1cnc(Nc2ccc(N3CCN(C)CC3)cc2)nc1Nc1cccc(S(=O)(=O)NC(C)(C)C)c1 [TG101209]
IC50 [1]: 1540 ± 214 nM
remaining activity at 5 µM ([1]; HEK293T): 46.6 ± 2.2%
remaining activity at 10 µM ([1]; HEK293T): 36.9 ± 0.7%
ΔTm at 10 µM (ERK3 kinase domain [2]; [4]): 0.3 ± 0.2 °C

COc1cc2ncnc(Nc3ccc(O)c(Br)c3)c2cc1OC [WHI-P154]
IC50 [1]: 540 ± 129 nM
remaining activity at 5 µM ([1]; HEK293T): 50.8 ± 4.5%
remaining activity at 10 µM ([1]; HEK293T): 36.2 ± 6.3%
ΔTm at 10 µM (ERK3 kinase domain [2]; [4]): -0.1 ± 0.2 °C

COc1ccc(Cl)c(Nc2nc3ccccc3nc2NS(=O)(=O)c2cccc(NC(=O)C(C)(C)N)c2)c1 [XL147]
ΔTm at 10 µM (ERK3 kinase domain [2]; [5]): 1.96 °C
ΔTm at 10 µM (ERK3 kinase domain [2]; [6]): 1.2 ± 0.6 °C

— publication PMC7663056, “Crystal Structure and Inhibitor Identifications Reveal Targeting Opportunity for the Atypical MAPK Kinase ERK3” (International Journal of Molecular Sciences, 2020)
